Experiments:
Format in all cases: in vivo
[1] = tested on: Amaranthus retroflexus (AMARE); assay: Herbicidal pre-emergence action, section C (Table C11); settings: Amaranthus retroflexus, pre-emergence, 504 h; application rate 320 g/ha; visual grading after ca. 3 weeks; read-out: pre-emergence activity against AMARE in %
From the text: (§1) Seeds of mono- and dicotyledonous weed plants and crop plants were sown, in plastic or organic planting pots, in sandy loam and covered with soil. The compounds according to the invention, formulated in the form of wettable powders (WP) or as emulsifiable concentrates (EC), were applied to the surface of the covering soil as aqueous suspension or emulsion, with the addition of 0.5% of an additive, at an application rate of 600 l of water/ha (converted). Following treatment, the pots were placed in a greenhouse and kept under optimum growth conditions for the test plants. The visual grading of the damage to the test plants was carried out after ca. 3 weeks in comparison to untreated controls (herbicidal effect in percent (%): 100% effect=plants have died off, 0% effect=as control plants).

[2] = tested on: Triticum aestivum (TRZAS); assay: Pre-emergence effects on crop plants, section D (Table D2); settings: application rate 80 g/ha; visual grading after ca. 3 weeks
From the text: (§2) Seeds of mono- and dicotyledonous weed plants and crop plants were sown, in plastic or organic planting pots, in sandy loam and covered with soil. The compounds according to the invention, formulated in the form of wettable powders (WP) or as emulsifiable concentrates (EC), were applied to the surface of the covering soil as aqueous suspension or emulsion, with the addition of 0.5% of an additive, at an application rate of 600 l of water/ha (converted).
(§3) Following treatment, the pots were placed in a greenhouse and kept under optimum growth conditions for the test plants. The visual grading of the damage to the test plants was carried out after ca. 3 weeks in comparison to untreated controls (herbicidal effect in percent (%): 100% effect=plants have died off, 0% effect=as control plants).
(§4) Tables D1 to D5 below show the effects of various compounds of the general formula (I) according to Table 1 on various crop plants and an application rate corresponding to 320 g/ha or below obtained by the experimental procedure mentioned above in Biological Examples, Section C.

Glycine max (GLXMA) [3] = assay: Pre-emergence effects on crop plants, section D (Table D4); settings: application rate 80 g/ha; visual grading after ca. 3 weeks
From the text: as §2, §3, §4

Zea mays (ZEAMX) = assay: Post-emergence effects on crop plants, section F (Table F1); settings: Zea mays, 504 h, application rate 320 g/ha, read-out: post-emergence activity against ZEAMX in %
From the text: (§5) Seeds of mono- and dicotyledonous weed plants and crop plants were sown, in plastic or organic planting pots, in sandy loam, covered with soil and grown in a greenhouse under controlled growth conditions. 2 to 3 weeks after sowing, the test plants were sprayed in the single-leaf stage. The compounds according to the invention, formulated in form of wettable powders (WP) or as emulsifiable concentrates (EC), were sprayed onto the green plant parts as aqueous suspension or emulsion, with the addition of 0.5% of an additive, at an application rate of 600 l of water/ha (converted). The test plants were placed in the greenhouse for ca. 3 weeks under optimum growth conditions, and then the effect of the preparations was assessed visually in comparison with untreated controls (herbicidal effect in percent (%): 100% effect=plants have died off, 0% effect=as control plants). Tables F1 to F4 below show the effects of selected compounds of the general formula (I) according to Table 1 on various crop plants and an application rate corresponding to 320 g/ha or below obtained by the experimental procedure mentioned above.

[4] = tested on: Triticum aestivum (TRZAS); assay: Post-emergence effects on crop plants, section F (Table F2); settings: Triticum aestivum, 504 h, application rate 320 g/ha, read-out: post-emergence activity against TRZAS in %
From the text: as §5

Glycine max (GLXMA) [5] = assay: Post-emergence effects on crop plants, section F (Table F4); settings: Glycine max, 504 h, application rate 80 g/ha, read-out: post-emergence activity against GLXMA in %
From the text: as §5

[6] = tested on: Alopecurus myosuroides (ALOMY); assay: Herbicidal pre-emergence action, section A (Table A2); settings: application rate 1280 g/ha; visual grading after ca. 3 weeks vs untreated controls
From the text: as §1, with “plants” for “plants and crop plants”, “sown” for “sown,”, “pots (double sowings with one species of mono- and one species of dicotyledonous weed plants per pot),” for “or organic planting pots,”, “loam,” for “loam”, “water per hectare” for “water/ha”

[7] = tested on: Echinochloa crus-galli (ECHCG); assay: Herbicidal pre-emergence action, section A (Table A3); settings: visual grading after ca. 3 weeks vs untreated controls
In short: (§6)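 Read-out is visual herbicidal effect in percent (100% = plants died, 0% = as control), graded ca. 3 weeks after treatment. Test compounds as WP or EC were applied to covering soil over sown seeds with 0.5% additive, 600 l water per hectare; greenhouse growth.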

Kochia scoparia (KCHSC) [8] = assay: Herbicidal pre-emergence action, section A (Table A4); settings: visual grading after ca. 3 weeks vs untreated controls
In short: as §6

Lolium rigidum (LOLRI) = assay: Herbicidal pre-emergence action, section A (Table A5); settings: application rate 320 g/ha; visual grading after ca. 3 weeks vs untreated controls
In short: as §6

[9] = tested on: Matricaria inodora (MATIN); assay: Herbicidal pre-emergence action, section A (Table A6); settings: application rate 1280 g/ha; visual grading after ca. 3 weeks vs untreated controls
In short: as §6

Poa annua (POAAN) [10] = assay: Herbicidal pre-emergence action, section A (Table A7); settings: visual grading after ca. 3 weeks vs untreated controls
In short: as §6

Setaria viridis (SETVI) [11] = assay: Herbicidal pre-emergence action, section A (Table A8); settings: application rate 1280 g/ha
In short: as §6

Stellaria media (STEME) [12] = assay: Herbicidal pre-emergence action, section A (Table A9); settings: application rate 320 g/ha
In short: as §6

Veronica persica (VERPE) [13] = assay: Herbicidal pre-emergence action, section A (Table A10); settings: application rate 1280 g/ha
In short: as §6

[14] = tested on: Amaranthus retroflexus (AMARE); assay: Herbicidal pre-emergence action, section A (Table A11)
In short: as §6

[15] = tested on: Digitaria sanguinalis (DIGSA); assay: Herbicidal pre-emergence action, section A (Table A12); settings: application rate 1280 g/ha
In short: as §6

[16] = tested on: Abutilon theophrasti (ABUTH); assay: Herbicidal post-emergence action, section B (Table B1); settings: application rate 1280 g/ha, rated visually after about 3 weeks
Experimental: (§7) Seeds of mono- and dicotyledonous weed plants were placed in plastic pots in sandy loam soil (doubly sown with in each case one species of mono- or dicotyledonous weed plants per pot), covered with soil and cultivated in a greenhouse under controlled growth conditions. 2 to 3 weeks after sowing, the test plants were treated at the one-leaf stage. The compounds of the invention, formulated in the form of wettable powders (WP) or as emulsion concentrates (EC), were applied onto the green parts of the plants as aqueous suspension or emulsion with addition of 0.5% additive at a water application rate of 600 liters per hectare (converted). After the test plants had been kept in the greenhouse under optimum growth conditions for about 3 weeks, the activity of the preparations was rated visually in comparison to untreated controls. For example, 100% activity=the plants have died, 0% activity=like control plants.

Kochia scoparia (KCHSC) [17] = assay: Herbicidal post-emergence action, section B (Table B4); settings: application rate 320 g/ha; visual rating about 3 weeks after treatment vs untreated controls
In short: (§8)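 Under optimum greenhouse conditions, sandy-loam-grown weeds at the one-leaf stage are sprayed with aqueous suspension or emulsion carrying 0.5% additive, 600 liters per hectare. About 3 weeks later, visual percent activity is scored relative to untreated controls.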

Poa annua (POAAN) [18] = assay: Herbicidal post-emergence action, section B (Table B7); settings: application rate 1280 g/ha; visual rating about 3 weeks after treatment vs untreated controls
Experimental: as §7

Setaria viridis (SETVI) [19] = assay: Herbicidal post-emergence action, section B (Table B8); settings: application rate 1280 g/ha; visual rating about 3 weeks after treatment vs untreated controls
Experimental: as §7

Stellaria media (STEME) [20] = assay: Herbicidal post-emergence action, section B (Table B9); settings: application rate 1280 g/ha; visual rating about 3 weeks after treatment vs untreated controls
In short: as §8

Veronica persica (VERPE) [21] = assay: Herbicidal post-emergence action, section B (Table B10); settings: application rate 320 g/ha; visual rating about 3 weeks after treatment vs untreated controls
In short: as §8

[22] = tested on: Amaranthus retroflexus (AMARE); assay: Herbicidal post-emergence action, section B (Table B11); settings: application rate 1280 g/ha; visual rating about 3 weeks after treatment vs untreated controls
In short: as §8

[23] = tested on: Digitaria sanguinalis (DIGSA); assay: Herbicidal post-emergence action, section B (Table B12); settings: application rate 1280 g/ha; visual rating about 3 weeks after treatment vs untreated controls
Experimental: as §7

[24] = tested on: Abutilon theophrasti (ABUTH); assay: Herbicidal pre-emergence action, section A (Table A1); settings: application rate 1280 g/ha; visual grading after ca. 3 weeks vs untreated controls
From the text: as §1, with “plants” for “plants and crop plants”, “sown” for “sown,”, “pots (double sowings with one species of mono- and one species of dicotyledonous weed plants per pot),” for “or organic planting pots,”, “loam,” for “loam”, “water per hectare” for “water/ha”

Which pest or weed control at 320 g/ha [1] does the source give for `Cc1cc2c(nc1-c1cccc(F)c1F)N(S(C)(=O)=O)CS2(=O)=O` [Example I-151, 5-(2,3-difluorophenyl)-3-(methylsulfonyl)-6-methyl-2,3-dihydro[1,3]thiazolo[4,5-b]pyridine 1,1-dioxide] here?
The pest or weed control at 320 g/ha was 100%.

What about the “pre-emergence activity against TRZAS in % (crop plant damage)” value [2] of the same molecule?
Its value is 0%.

And the “pre-emergence activity against GLXMA in % (crop plant damage)” value (Glycine max (GLXMA) [3])?
The value was 0%.

And the percent crop plant damage (phytotoxicity) on Zea mays, post-emergence at 320 g/ha (Zea mays (ZEAMX))?
Its percent crop plant damage (phytotoxicity) on Zea mays, post-emergence at 320 g/ha is 0%.

And the percent crop plant damage (wheat, post-emergence) at 320 g/ha [4]?
Its percent crop plant damage (wheat, post-emergence) at 320 g/ha is 0%.

What about the percent crop plant damage at 80 g/ha (Glycine max (GLXMA) [5]) of the same molecule?
Its percent crop plant damage at 80 g/ha is 0%.

With `Cc1ccccc1-c1nc2c(cc1Br)SCN2B1NB(N)N1` [Example I-056] as the molecule, how does the “pre-emergence activity against ALOMY in %” value [6] read?
Its value is 90%.

What about the “pre-emergence activity against ECHCG in %” value ([7]; application rate 1280 g/ha) of the same molecule?
Its value is 100%.

What about the “pre-emergence activity against KCHSC in %” value (Kochia scoparia (KCHSC) [8]; application rate 1280 g/ha) of the same molecule?
Its value is 100%.

What about the “pre-emergence activity against LOLRI in %” value (Lolium rigidum (LOLRI)) of the same molecule?
The value was 100%.

And the “pre-emergence activity against MATIN in %” value [9]?
Its value is 90%.

And the “pre-emergence activity against POAAN in %” value (Poa annua (POAAN) [10]; application rate 1280 g/ha)?
Its value is 100%.

What about the “pre-emergence activity against SETVI in %” value (Setaria viridis (SETVI) [11]) of the same molecule?
Its value is 100%.

What about the “pre-emergence activity against STEME in %” value (Stellaria media (STEME) [12]) of the same molecule?
Its value is 90%.

And the “pre-emergence activity against VERPE in %” value (Veronica persica (VERPE) [13])?
Its value is 90%.

And the “pre-emergence activity against AMARE in %” value ([14]; application rate 320 g/ha)?
The value was 90%.

What about the “pre-emergence activity against DIGSA in %” value [15] of the same molecule?
Its value is 100%.

And the “post-emergence activity against ABUTH in %” value [16]?
The value was 90%.

What about the “post-emergence activity against KCHSC in %” value (Kochia scoparia (KCHSC) [17]) of the same molecule?
The value was 90%.

And the “post-emergence activity against POAAN in %” value (Poa annua (POAAN) [18])?
The value was 90%.

And the “post-emergence activity against SETVI in %” value (Setaria viridis (SETVI) [19])?
Its value is 90%.

What about the “post-emergence activity against STEME in %” value (Stellaria media (STEME) [20]) of the same molecule?
The value was 90%.

What about the “post-emergence activity against VERPE in %” value (Veronica persica (VERPE) [21]) of the same molecule?
The value was 90%.

And the “post-emergence activity against AMARE in %” value [22]?
The value was 90%.

What about the “post-emergence activity against DIGSA in %” value [23] of the same molecule?
Its value is 90%.

Which results are given for `Cc1cc2c(nc1-c1cccc(C)c1C)N(C(=O)C1(C)CC(Cl)=NO1)CS2` (stereo not drawn) [Example I-138]?
pre-emergence activity against ABUTH in % [24]: 90%; pre-emergence activity against ECHCG in % ([7]; application rate 320 g/ha): 90%; pre-emergence activity against KCHSC in % (Kochia scoparia (KCHSC) [8]; application rate 320 g/ha): 90%; pre-emergence activity against MATIN in % [9]: 90%; pre-emergence activity against POAAN in % (Poa annua (POAAN) [10]; application rate 320 g/ha): 100%; pre-emergence activity against SETVI in % (Setaria viridis (SETVI) [11]): 100%; pre-emergence activity against STEME in % (Stellaria media (STEME) [12]): 90%; pre-emergence activity against AMARE in % ([14]; application rate 1280 g/ha): 90%; pre-emergence activity against DIGSA in % [15]: 90%; post-emergence activity against ABUTH in % [16]: 90%; post-emergence activity against KCHSC in % (Kochia scoparia (KCHSC) [17]): 90%; post-emergence activity against POAAN in % (Poa annua (POAAN) [18]): 90%; post-emergence activity against STEME in % (Stellaria media (STEME) [20]): 90%; post-emergence activity against AMARE in % [22]: 100%

— patent US20240381872A1, “SUBSTITUTED 2,3-DIHYDRO[1,3]THIAZOLO[4,5-B]PYRIDINES, SALTS THEREOF AND THEIR USE AS HERBICIDALLY ACTIVE SUBSTANCES” (BAYER AKTIENGESELLSCHAFT, priority 2021, published 2024)
